Experimental data: paper PMC9090415, “Discovery of small molecule inhibitors of Plasmodium falciparum apicoplast DNA polymerase” (Journal of Enzyme Inhibition and Medicinal Chemistry, 2022)

Biological target: P. falciparum apicoplast DNA polymerase (Pf-apPOL) (Plasmodium falciparum, UniProt Q8ILY1)
Assay: Fluorescence-based high-throughput DNA polymerase assay (molecular beacon), primary screen and dose-response
Type: biochemical
Settings: for DNA Pol: 90 min, 10 µM; for % inhibition apPOL 180' 2.5 / % inhibition apPOL 180' 5 / % inhibition apPOL 180' 10 / % inhibition apPOL 180' 20 / % inhibition apPOL 180' 40 / % inhibition apPOL 180' 80: read at 180'
In short: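 Single-point screening used 10 µM compound with 20 nM polymerase, 20 nM hairpin substrate and 6 µM dNTPs for 90 min at 25 °C. Confirmatory titrations (2.5–80 µM) followed fluorescence at three times, and IC50 was derived from a fit including a cooperativity term n.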

[1] = first dose-response, concentration 10
[2] = first dose-response, concentration 20

P. falciparum apicoplast DNA polymerase (Pf-apPOL), sequence (Q8ILY1 entry or part of it): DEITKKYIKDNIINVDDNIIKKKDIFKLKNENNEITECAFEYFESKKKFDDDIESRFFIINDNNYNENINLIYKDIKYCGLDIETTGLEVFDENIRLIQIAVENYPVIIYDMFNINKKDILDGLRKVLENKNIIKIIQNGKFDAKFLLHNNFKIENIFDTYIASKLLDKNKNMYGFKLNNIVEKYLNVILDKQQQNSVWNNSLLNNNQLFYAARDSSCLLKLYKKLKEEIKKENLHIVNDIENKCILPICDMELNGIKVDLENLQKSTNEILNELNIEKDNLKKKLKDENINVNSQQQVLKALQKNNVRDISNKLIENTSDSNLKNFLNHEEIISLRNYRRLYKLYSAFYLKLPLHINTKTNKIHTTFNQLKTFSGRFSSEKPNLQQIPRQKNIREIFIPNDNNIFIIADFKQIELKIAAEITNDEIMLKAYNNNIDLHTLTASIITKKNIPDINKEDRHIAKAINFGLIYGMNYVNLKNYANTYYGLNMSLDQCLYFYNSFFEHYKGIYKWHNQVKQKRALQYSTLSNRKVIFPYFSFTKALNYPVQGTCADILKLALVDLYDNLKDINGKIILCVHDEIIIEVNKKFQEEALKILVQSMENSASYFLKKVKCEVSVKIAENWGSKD

Structure (SMILES): COc1ccccc1CC(=O)N1CCc2c(nc3cc(-c4ccccc4Cl)[nH]n3c2=O)C1 [Molecule 49, COc1ccccc1CC(=O)N1CCc2c(C1)nc1n(c2=O)[nH]c(c1)c1ccccc1Cl]
- DNA Pol (186 hits, DNA Pol (screen value), unit not given): 46
- DNA Pol ('DNA Pol' (screen value), unit not given): 46
- % inhibition Apo pol 10' 2.5 (DRC-1, read at 10', concentration 2.5): 7.56%
- % inhibition Apo pol 10' 5 (DRC-1, read at 10', concentration 5): 17%
- % inhibition Apo pol 10' 10 (DRC-1, read at 10', concentration 10): 40%
- % inhibition Apo pol 10' 20 (DRC-1, read at 10', concentration 20): 65%
- % inhibition Apo pol 10' 40 (DRC-1, read at 10', concentration 40): 80%
- % inhibition Apo pol 10' 80 (DRC-1, read at 10', concentration 80): 74%
- % inhibition Apol 90' 2.5 (DRC-1, read at 90', concentration 2.5): -3.41%
- % inhibition Apol 90' 5 (DRC-1, read at 90', concentration 5): 2.19%
- % inhibition Apol 90' 10 (DRC-1, read at 90', concentration 10): 20%
- % inhibition Apol 90' 20 (DRC-1, read at 90', concentration 20): 40%
- % inhibition Apol 90' 40 (DRC-1, read at 90', concentration 40): 68%
- % inhibition Apol 90' 80 (DRC-1, read at 90', concentration 80): 71%
- % inhibition apPOL 180' 2.5 (DRC-1, concentration 2.5): -9%
- % inhibition apPOL 180' 5 (DRC-1, concentration 5): -5.67%
- % inhibition apPOL 180' 10 (DRC-1, concentration 10): 8%
- % inhibition apPOL 180' 20 (DRC-1, concentration 20): 20%
- % inhibition apPOL 180' 40 (DRC-1, concentration 40): 52%
- % inhibition apPOL 180' 80 (DRC-1, concentration 80): 59%
- % inhibition Apo pol 5' (DRC-2, concentration 40): 56%
- % inhibition Apol 40' (DRC-2, concentration 5): 20%
- % inhibition Apol 40' (DRC-2, concentration 10): 44%
- % inhibition Apol 40' (DRC-2, concentration 20): 56%
- % inhibition apPOL 180' (DRC-2, concentration 20): 44%
- % inhibition apPOL 180' (DRC-2, concentration 40): 56%
- % inhibition apPOL 180' (DRC-2, concentration 80): 52%
- % inhibition Apo pol 5' 2.5 (DRC-2, read at 5', concentration 2.5): 3.77%
- % inhibition Apo pol 5' 5 (DRC-2, read at 5', concentration 5): 16%
- % inhibition Apo pol 5' 10 (DRC-2, read at 5', concentration 10): 38%
- % inhibition Apo pol 5' 20 (DRC-2, read at 5', concentration 20): 49%
- % inhibition Apo pol 5' 40 (DRC-2, read at 5', concentration 40): 56%
- % inhibition Apo pol 5' 80 (DRC-2, read at 5', concentration 80): 41%
- % inhibition Apol 40' 2.5 (DRC-2, read at 40', concentration 2.5): 3.38%
- % inhibition Apol 40' 5 (DRC-2, read at 40', concentration 5): 20%
- % inhibition Apol 40' 10 (DRC-2, read at 40', concentration 10): 44%
- % inhibition Apol 40' 20 (DRC-2, read at 40', concentration 20): 56%
- % inhibition Apol 40' 40 (DRC-2, read at 40', concentration 40): 64%
- % inhibition Apol 40' 80 (DRC-2, read at 40', concentration 80): 57%
- % inhibition ApPOL 90' 2.5 (DRC-2, read at 90', concentration 2.5): 3.2%
- % inhibition ApPOL 90' 5 (DRC-2, read at 90', concentration 5): 18%
- % inhibition ApPOL 90' 10 (DRC-2, read at 90', concentration 10): 43%
- % inhibition ApPOL 90' 20 (DRC-2, read at 90', concentration 20): 54%
- % inhibition ApPOL 90' 40 (DRC-2, read at 90', concentration 40): 63%
- % inhibition ApPOL 90' 80 (DRC-2, read at 90', concentration 80): 58%
- % inhibition apPOL 180' 2.5 (DRC-2, concentration 2.5): -1%
- % inhibition apPOL 180' 5 (DRC-2, concentration 5): 12%
- % inhibition apPOL 180' 10 (DRC-2, concentration 10): 34%
- % inhibition apPOL 180' 20 (DRC-2, concentration 20): 44%
- % inhibition apPOL 180' 40 (DRC-2, concentration 40): 56%
- % inhibition apPOL 180' 80 (DRC-2, concentration 80): 52%
- % inhibition Apo pol 10' [1]: 40%
- % inhibition Apol 90' [1]: 20%
- % inhibition Apol 90' [2]: 40%
- % inhibition apPOL 180' [2]: 20%
- % inhibition apPOL 180' (first dose-response, concentration 40): 52%

Structure (SMILES): O=C(CSc1nnc(-c2ccco2)[nH]1)c1ccc(Cl)cc1 [KU0029065]
- DNA Pol ("DNA Pol" of the 186 hits list (screen value)): 40
- % inhibition Apo pol 10' (DRC-1, concentration 2.5): 25.2453%
- % inhibition Apo pol 10' (DRC-1, concentration 5): 33.7865%
- % inhibition Apo pol 10' (DRC-1, concentration 10): 71.7651%
- % inhibition Apo pol 10' (DRC-1, concentration 20): 81.7468%
- % inhibition Apo pol 10' (DRC-1, concentration 40): 82.8592%
- % inhibition Apo pol 10' (DRC-1, concentration 80): 73.082%
- % inhibition Apol 90' (DRC-1, concentration 2.5): 14.2802%
- % inhibition Apol 90' (DRC-1, concentration 5): 16.5602%
- % inhibition Apol 90' (DRC-1, concentration 10): 48.3315%
- % inhibition Apol 90' (DRC-1, concentration 20): 65.2838%
- % inhibition Apol 90' (DRC-1, concentration 40): 75.799%
- % inhibition Apol 90' (DRC-1, concentration 80): 79.1006%
- % inhibition apPOL 180' (DRC-1, concentration 2.5): 10.7111%
- % inhibition apPOL 180' (DRC-1, concentration 5): 8.15%
- % inhibition apPOL 180' (DRC-1, concentration 10): 30.1123%
- % inhibition apPOL 180' (DRC-1, concentration 20): 47.4786%
- % inhibition apPOL 180' (DRC-1, concentration 40): 65.3498%
- % inhibition apPOL 180' (DRC-1, concentration 80): 74.7958%
- % inhibition Apo pol 5' (DRC-2, concentration 2.5): -0.174%
- % inhibition Apo pol 5' (DRC-2, concentration 5): -0.717%
- % inhibition Apo pol 5' (DRC-2, concentration 10): 6%
- % inhibition Apo pol 5' (DRC-2, concentration 20): 26%
- % inhibition Apo pol 5' (DRC-2, concentration 40): -5.63%
- % inhibition Apo pol 5' (DRC-2, concentration 80): -27%
- % inhibition Apol 40' (DRC-2, concentration 2.5): 0.888%
- % inhibition Apol 40' (DRC-2, concentration 5): 0.406%
- % inhibition Apol 40' (DRC-2, concentration 10): 7%
- % inhibition Apol 40' (DRC-2, concentration 20): 17%
- % inhibition Apol 40' (DRC-2, concentration 40): 0.537%
- % inhibition Apol 40' (DRC-2, concentration 80): -50%
- % inhibition ApPOL 90' (DRC-2, concentration 2.5): 1.21%
- % inhibition ApPOL 90' (DRC-2, concentration 5): -0.831%
- % inhibition ApPOL 90' (DRC-2, concentration 10): 6%
- % inhibition ApPOL 90' (DRC-2, concentration 20): 23%
- % inhibition ApPOL 90' (DRC-2, concentration 40): -0.138%
- % inhibition ApPOL 90' (DRC-2, concentration 80): -49%
- % inhibition apPOL 180' (DRC-2, concentration 2.5): 0.33%
- % inhibition apPOL 180' (DRC-2, concentration 5): -8%
- % inhibition apPOL 180' (DRC-2, concentration 10): -2.67%
- % inhibition apPOL 180' (DRC-2, concentration 20): 15%
- % inhibition apPOL 180' (DRC-2, concentration 40): -5%
- % inhibition apPOL 180' (DRC-2, concentration 80): -45%
- DNA Pol (primary screen value, DNA Pol): 40
